pEC50, pIC50, pKi: −log10 of the molar value.
Legend:
[1] = Half life period when administered 1 mg/kg intravenously in rat; type: ADME, organism-based; design: dose 1 mg/kg, route intravenous; details: in vivo, iv
[2] = Plasma administered 1 mg/kg intravenously in rat.; type: ADME, organism-based; design: dose 1 mg/kg, route intravenous; details: iv
[3] = target: T1, Corticotropin-releasing factor receptor 2 (Homo sapiens, UniProt Q13324); assay: Compound was tested for the binding affinity to human corticotropin releasing factor receptor (hCRF2)
T1 sequence (Q13324 whole entry): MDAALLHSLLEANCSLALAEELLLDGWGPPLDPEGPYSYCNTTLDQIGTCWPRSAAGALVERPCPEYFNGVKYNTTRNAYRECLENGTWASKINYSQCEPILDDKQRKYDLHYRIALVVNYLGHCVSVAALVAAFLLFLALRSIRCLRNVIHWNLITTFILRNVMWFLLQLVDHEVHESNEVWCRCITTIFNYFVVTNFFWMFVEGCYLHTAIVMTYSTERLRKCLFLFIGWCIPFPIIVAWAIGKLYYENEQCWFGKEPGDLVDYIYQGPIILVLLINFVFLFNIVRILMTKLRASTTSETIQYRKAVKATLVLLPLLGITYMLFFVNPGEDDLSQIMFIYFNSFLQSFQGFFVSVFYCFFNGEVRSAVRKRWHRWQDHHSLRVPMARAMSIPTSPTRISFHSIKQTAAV

[4] = target: T2, Corticotropin-releasing factor receptor 1 (Homo sapiens, UniProt P34998); assay: Compound was tested for the binding affinity to human corticotropin releasing factor 1 (hCRF1) receptors.
T2 sequence (P34998 whole entry): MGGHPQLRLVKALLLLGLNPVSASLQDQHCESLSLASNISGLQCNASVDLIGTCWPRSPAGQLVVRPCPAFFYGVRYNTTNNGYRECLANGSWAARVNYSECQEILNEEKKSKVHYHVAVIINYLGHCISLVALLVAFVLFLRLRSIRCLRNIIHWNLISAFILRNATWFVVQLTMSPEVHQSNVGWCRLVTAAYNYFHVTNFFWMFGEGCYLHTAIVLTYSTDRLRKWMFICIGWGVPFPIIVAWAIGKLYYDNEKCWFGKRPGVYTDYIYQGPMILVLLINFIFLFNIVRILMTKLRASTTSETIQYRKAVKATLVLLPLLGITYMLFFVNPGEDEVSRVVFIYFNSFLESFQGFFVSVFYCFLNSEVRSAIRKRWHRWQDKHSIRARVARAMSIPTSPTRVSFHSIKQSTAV

[5] = target: T2, Corticotropin-releasing factor receptor 1; assay: Antagonist potency in hCRF1 stimulated adenylate cyclase assay; type: functional
[6] = Compound was tested for the binding affinity to mouse Corticotropin releasing factor receptor 2 beta
[7] = target: T3, Corticotropin releasing factor receptor (Rattus norvegicus, UniProt P47866+P35353); assay: Compound was tested for the binding affinity to rat ccorticotropin releasing factor receptor; type: protein assay
Rattus norvegicus [8] = organism: Rattus norvegicus; assay: Percent control value is reported, after studying ability to inhibit CRF-stimulated release of ACTH in rats; type: functional; design: scale not given: the % may be the effect or the level left
[9] = Pharmacokinetic profile (5 mg/kg) in rat for Oral bioavailability; type: ADME, organism-based; details: in vivo
[10] = Oral bioavailability is reported, after administering 1 mg/kg (intravenously and orally ) to dogs; type: ADME, organism-based, Canis lupus familiaris; details: dog, in vivo
[11] = target: T2, Corticotropin-releasing factor receptor 1; assay: Compound was tested for the binding affinity to human corticotropin releasing factor receptor
[12] = target: T2, Corticotropin-releasing factor receptor 1; assay: Inhibition of corticotropin releasing factor receptor mediated increase in cAMP level using HEK293 cells expressing h-CRF1 receptor; type: cell-based
[13] = (§1) oral pharmacokinetic parameter, Half-life period was reported in rats; type: ADME, organism-based; details: rat, in vivo
[14] = oral pharmacokinetic parameter, Oral bioavailability was reported in dogs; type: ADME, organism-based, Canis lupus familiaris; details: dog, in vivo
[15] = oral pharmacokinetic parameter, Oral bioavailability was reported in rats; type: ADME, organism-based; details: rat, in vivo
[16] = oral pharmacokinetic parameter, Half-life period was reported in dogs; type: ADME, organism-based, Canis lupus familiaris; details: dog, in vivo
[17] = oral pharmacokinetic parameter, Maximum concentration was reported in dogs; type: ADME, organism-based, Canis lupus familiaris; design: route oral; details: dog, in vivo
[18] = as §1; type: ADME, organism-based; details: rat, in vivo; remark: listed apart in the source
[19] = target: T2, Corticotropin-releasing factor receptor 1; assay: Inhibition of corticotropin releasing factor receptor mediated increase in adenylate cyclase activity was evaluated
[20] = target: T3, Corticotropin releasing factor receptor; assay: Effective concentration to inhibit CRF-mediated increase in adenylate cyclase; type: protein assay
[21] = target: T3, Corticotropin releasing factor receptor; assay: (§2) Compound was tested for the binding affinity to rat corticotropin releasing factor receptor; type: protein assay
[22] = target: T3, Corticotropin releasing factor receptor; assay: as §2; type: protein assay; remark: listed apart in the source
Rattus norvegicus [23] = organism: Rattus norvegicus; assay: Effective concentration to inhibit adenocorticotropic hormone (ACTH) release from primary cultures of rat pituitary cells.; type: functional, cell-based; details: Pituitary gland cell
[24] = Compound was tested for the max. conc. when administered perorally(po) 30 mg/kg; type: ADME, organism-based; design: dose 30 mg/kg, route oral; details: in vivo
[25] = Compound was tested for the max. conc. when administered intraperitoneally (ip) 30 mg/kg; type: ADME, organism-based; design: dose 30 mg/kg, route intraperitoneal; details: in vivo
[26] = Compound was tested for bioavailability when administered intraperitoneally; type: ADME, organism-based; details: eutheria, in vivo, ip
[27] = Compound was tested for bioavailability when administered perorally; type: ADME, organism-based; details: eutheria, in vivo, po
[28] = target: T3, Corticotropin releasing factor receptor; assay: Compound was tested for the binding affinity to rat Corticotropin releasing factor (rCRF) receptors; type: protein assay
Rattus norvegicus [29] = assay: Dose (ip) that completely reverses the r/h-CRF-enhanced acoustic startle of rats; type: functional
Rattus norvegicus [30] = organism: Rattus norvegicus; assay: 50% inhibitory concentration to antagonize ACTH secretion; type: functional; details: read-out: ID50 (the source's name)

With `COCCN(CCOC)c1nc(C)nc2c1nnn2-c1ccc(C(C)C)cc1Br` the half-life [1] was 7.6 h and the clearance [2] was 50 mL/min/kg.

With `CCCN(CCC)c1cc(C)nc2c(-c3ccc(OC)cc3OC)c(C)nn12` the pKi [3] was under 5.00, the pKi [4] was 8.55 and the pEC50 [5] was 6.85.

`CO[C@@]12C(COC(N)=O)C3=C(C(=O)C(C)=C(NCCc4ccco4)C3=O)N1CC1NC12` (stereo partly specified) gave a pKi [6] of 7.70, a Ki [7] of 110 nM and a Control (Rattus norvegicus [8]) of 50%.

`CCN(c1nc(C)nc(N2CCOCC2)n1)c1c(Br)cc(OC)cc1OC.CS(=O)(=O)O` showed a bioavailability [9] of 20%.

Work on `COCC(COC)n1nnc2c(Nc3c(C)cc(C)cc3Cl)nc(C)cc21.CS(=O)(=O)O` yielded a bioavailability [10] of 59%, a pKi [11] of 8.48 and a pIC50 [12] of 7.12.

`COCC(COC)Nc1nc(C)nc2c(-c3ccc(Cl)cc3Cl)c(C)nn12` showed a half-life [13] of 16.5 h, a bioavailability [14] of 50% and an F [15] of 36.7%. It also gave a half-life [16] of 33 h, a Cmax [17] of 240 nM and a half-life [18] of 16.5 h. The pIC50 [19] was 7.09 and the pKi [11] was 8.74.

For `CCCN(CC1CC1)c1nc(C)nc(Nc2c(Cl)cc(Cl)cc2Cl)c1Cl`, the EC50 [20] was 150 nM, the Ki [21] was over 10000 nM and the Ki [22] was 2 nM. For the same molecule, the pEC50 (Rattus norvegicus [23]) was 7.15.

In the case of `CCN(c1nc(C)cc(C)n1)c1c(Br)cc(OC)cc1OC`, the Cmax [24] was 366 nM, the Cmax [25] was 1880 nM and the bioavailability [26] was 26%. For the same molecule, the bioavailability [27] was 4%.

`Cc1cc(N2CCOCC2)c2ccn(-c3ccc(C(C)C)cc3Br)c2n1` gave a Ki [28] of 28 nM.

Molecule `CCCCN(CC)c1nc(C)nc2c1c(C)cn2-c1c(C)cc(C)cc1C.Cl` has a Dose (Rattus norvegicus [29]) of 17.8 mg/kg and an ED50 (Rattus norvegicus [30]) of 13 mg/kg.

From ChEMBL document CHEMBL1132922, “Corticotropin releasing factor (CRF) receptor modulators: progress and opportunities for new therapeutic agents” (J Med Chem, 2000)
